Columns and labels:
[1] = test system: B. subtilis; experiment: Antibiotic activity of electropherogram spot; assay type: cell-based; conditions: against B. subtilis
[2] = test system: Escherichia coli; experiment: Antibiotic activity of electropherogram spot; assay type: cell-based; conditions: against Escherichia coli
[3] = test system: Pseudomonas aeruginosa; experiment: Antibiotic activity of electropherogram spot; assay type: cell-based; conditions: against Pseudomonas aeruginosa
[4] = Antibiotic activity of electropherogram spot (organism not stated); assay type: cell-based
[5] = test system: Corynebacterium pyogenes M.; experiment: In vitro turbidity test, 24 h in Muller-Hinton broth; assay type: cell-based; conditions: 100 μg/ml
[6] = test system: Corynebacterium diphtheria gravis; experiment: as above; assay type: cell-based; conditions: 100 μg/ml
[7] = test system: Salmonella sp.; experiment: as above; assay type: cell-based; conditions: 100 μg/ml
[8] = test system: Haemophilis influenzae; experiment: as above; assay type: cell-based; conditions: 100 μg/ml
[9] = test system: Providencia; experiment: as above; assay type: cell-based; conditions: 100 μg/ml
[10] = test system: Enterobacter aerogenes sp.; experiment: as above; assay type: cell-based; conditions: 100 μg/ml
[11] = test system: Bordetella bronchiseptica; experiment: as above; assay type: cell-based; conditions: 100 μg/ml
[12] = test system: Enterococcus sp.; experiment: as above; assay type: cell-based; conditions: 100 μg/ml
[13] = test system: Proteus, indole negative and indole positive sp.; experiment: as above; assay type: cell-based; conditions: 100 μg/ml
[14] = test system: Escherichia coli BE; experiment: as above; assay type: cell-based; conditions: 100 μg/ml
[15] = test system: Streptococcus pyogenes W.; experiment: as above; assay type: cell-based; conditions: 100 μg/ml
[16] = test system: pasteurella pseudotuberculosis; assay type: cell-based; conditions: 100 μg/ml, 24 hours
[17] = test system: Diplococcus pneumoniae sp.; experiment: In vitro turbidity test, 24 h in Muller-Hinton broth; assay type: cell-based; conditions: 100 μg/ml
[18] = test system: Brucella sp.; assay type: cell-based; conditions: 100 μg/ml, 24 hours
[19] = test system: Shigella sp.; experiment: In vitro turbidity test, 24 h in Muller-Hinton broth; assay type: cell-based; conditions: 100 μg/ml
[20] = test system: Lactobacillus sp.; experiment: as above; assay type: cell-based; conditions: 100 μg/ml
[21] = test system: Klebsiella pneumoniae; experiment: as above; assay type: cell-based; conditions: 100 μg/ml, 1 × 10^5 to 2 × 10^5 bacteria per milliliter, freedom from turbidity = active
[22] = test system: Staphylococcus aureus 133; experiment: as above; assay type: cell-based; conditions: 100 μg/ml
[23] = test system: Neisseria catarrhalis sp.; experiment: as above; assay type: cell-based; conditions: 100 μg/ml
[24] = test system: Serratia marcescens; experiment: as above; assay type: cell-based; conditions: 100 μg/ml
[25] = test system: Staphylococcus aureus 133; experiment: Animal experiments with white mice, intraperitoneal infection, survival after 24 hours; assay type: in vivo, white mice of strain CF1; conditions: Staphylococcus aureus, 133, sc, subcutaneous, 1 administration 30 minutes after infection, dose at which 50% of infected animals survive, read-out: ED 50 after 24 hours
Experimental: (§1) The white mice of strain CF1 were infected intraperitoneally with the species of bacteria indicated. |Animal Experiments With White Mice |Determination of the ED 50 after 24 hours | Dose in mg of the cephalosporin from | Example 6 per kg of body weight |Germ (administered subcutaneously) |Therapy: 1 administration 30 minutes after infection. | The ED 50 is the dose at which 50% of the infected |animals still survive after 24 hours.

[26] = test system: Escherichia coli C 165; experiment: as above; assay type: in vivo, white mice of strain CF1; conditions: C165, sc, subcutaneous, 1 administration 30 minutes after infection, dose at which 50% of infected animals survive, read-out: ED 50 after 24 hours
Experimental: as §1

With `CC(=O)OCC1=C(C(=O)O)N2C(=O)[C@@H](NC(=O)[C@H](NC(=O)N3CCNC3=O)c3ccccc3)[C@H]2SC1` [Example 1, sodium 7-{D-α-[(2-oxo-imidazolidin-1-yl)carbonylamino]-phenylacetamido}-3-acetoxymethyl-ceph-3-em-4-carboxylate] the “antibiotic activity of the electropherogram spot” value (from here on “antibiotic activity”) [1] was “only one spot with antibiotic activity”, the “antibiotic activity” value [2] was “only one spot with antibiotic activity” and the “antibiotic activity” value [3] was “only one spot with antibiotic activity”.

With `CC1=C(C(=O)O)N2C(=O)[C@@H](NC(=O)[C@H](NC(=O)N3CCNC3=O)c3ccccc3)[C@H]2SC1` [Example 2, 7-{D-α-[(2-Oxo-imidazolidin-1-yl)-carbonylamino]-phenylacetamido}-3-methyl-ceph-3-em-4-carboxylic acid] the “antibiotic activity” value [4] was “only one spot with antibiotic activity”.

With `CC(=O)OCC1=C(C(=O)O)N2C(=O)[C@@H](NC(=O)[C@H](NC(=O)N3CCN(C)C3=O)c3ccccc3)[C@H]2SC1` [Example 3, sodium 7-{D-α-[(3-methyl-2-oxo-imidazolidin-1-yl)-carbonylamino]-phenylacetamido}-3-acetoxymethyl-ceph-3-em-4-carboxylate] the degree of turbidity [5] was “free from turbidity”, the degree of turbidity [6] was “free from turbidity” and the degree of turbidity [7] was “free from turbidity”. For the same compound, the degree of turbidity [8] was “free from turbidity”, the degree of turbidity [9] was “free from turbidity” and the degree of turbidity [10] was “free from turbidity”. For the same compound, the degree of turbidity [11] was “free from turbidity”, the degree of turbidity [12] was “free from turbidity” and the degree of turbidity [13] was “free from turbidity”. For the same compound, the degree of turbidity [14] was “free from turbidity”, the degree of turbidity [15] was “free from turbidity” and the degree of turbidity [16] was “free from turbidity”. The degree of turbidity [17] was “free from turbidity”, the degree of turbidity [18] was “free from turbidity” and the degree of turbidity [19] was “free from turbidity”. The degree of turbidity [20] was “free from turbidity”, the degree of turbidity [21] was “free from turbidity” and the degree of turbidity [22] was “free from turbidity”. The degree of turbidity [23] was “free from turbidity” and the degree of turbidity [24] was “free from turbidity”.

With `CC(=O)OCC1=C(C(=O)O)N2C(=O)[C@@H](NC(=O)[C@H](NC(=O)N3CCN(S(C)(=O)=O)C3=O)c3ccccc3)[C@H]2SC1` [Example 6, Sodium 7-{D-α-[(2-oxo-3-mesyl-imidazolidin-1-yl)-carbonylamino]-phenylacetamido}-3-acetoxymethyl-ceph-3-em-4-carboxylate] the degree of turbidity [5] was “free from turbidity”, the degree of turbidity [6] was “free from turbidity” and the ED50 [25] was 10 mg/kg. For the same compound, the ED50 [26] was 200 mg/kg, the degree of turbidity [7] was “free from turbidity” and the degree of turbidity [8] was “free from turbidity”. The degree of turbidity [9] was “free from turbidity”, the degree of turbidity [10] was “free from turbidity” and the degree of turbidity [11] was “free from turbidity”. The degree of turbidity [12] was “free from turbidity”, the “antibiotic activity” value [4] was “one spot with antibiotic activity” and the degree of turbidity [13] was “free from turbidity”. The degree of turbidity [14] was “free from turbidity”, the degree of turbidity [15] was “free from turbidity” and the degree of turbidity [16] was “free from turbidity”. The degree of turbidity [17] was “free from turbidity”, the degree of turbidity [18] was “free from turbidity” and the degree of turbidity [19] was “free from turbidity”. For the same compound, the degree of turbidity [20] was “free from turbidity”, the degree of turbidity [21] was “free from turbidity” and the degree of turbidity [22] was “free from turbidity”. The degree of turbidity [23] was “free from turbidity” and the degree of turbidity [24] was “free from turbidity”.

For `CC(=O)OCC1=C(C(=O)O)N2C(=O)[C@@H](NC(=O)[C@H](NC(=O)N3CCN(S(=O)(=O)c4ccccc4)C3=O)c3ccccc3)[C@H]2SC1` [Example 7, Sodium 7-{D-α-[(2-oxo-3-phenylsulphonyl-imidazolidin-1-yl)-carbonylamino]-phenylacetamido}-3-acetoxymethyl-ceph-3-em-4-carboxylate], the degree of turbidity [5] was “free from turbidity”, the degree of turbidity [6] was “free from turbidity” and the degree of turbidity [7] was “free from turbidity”. The degree of turbidity [8] was “free from turbidity”, the degree of turbidity [9] was “free from turbidity” and the degree of turbidity [10] was “free from turbidity”. The degree of turbidity [11] was “free from turbidity”, the degree of turbidity [12] was “free from turbidity” and the degree of turbidity [13] was “free from turbidity”. The degree of turbidity [14] was “free from turbidity”, the degree of turbidity [15] was “free from turbidity” and the degree of turbidity [16] was “free from turbidity”. For the same compound, the degree of turbidity [17] was “free from turbidity”, the degree of turbidity [18] was “free from turbidity” and the degree of turbidity [19] was “free from turbidity”. The degree of turbidity [20] was “free from turbidity”, the degree of turbidity [21] was “free from turbidity” and the degree of turbidity [22] was “free from turbidity”. The degree of turbidity [23] was “free from turbidity” and the degree of turbidity [24] was “free from turbidity”.
